The experiment concerns the target CDK7/CycH/MNAT1 (Homo sapiens (Human), UniProt P50613). The experiment is described as follows: Biochemical assay for CDK7 (TR-FRET kinase assay). As to conditions: 60 min pre-incubation, 1 mM ATP; for inhibition at 10 µM: 10 μM compound, read-out: % inhibition @ 10 μM; for IC50: read-out: IC50. The protocol: The ability of compounds to inhibit CDK7 kinase activity was tested in a TR-FRET assay using 5 nM of CDK7/CycH/MNAT1 obtained from Invitrogen, USA. Test compounds were pre-incubated with the kinase at room temperature for 60 min. After incubation, substrate mix [100 nM Ultra-light MBP (Perkin Elmer, USA) and 1 mM ATP (Sigma)] was added. The above reaction was stopped by the addition of 40 mM EDTA after 60 minutes of kinase reaction. 1 nM Eu-labelled antiphospho-MBP antibody [Perkin Elmer, USA] was added, mixed well and the fluorescence emission at 615 nm and 665 nm [excitation at 340 nm] was measured. The final DMSO concentration in the assay was 1%. For IC50 determination, appropriate concentrations were made by ⅓^rd serial dilutions of 10 mM DMSO stock solution of test compound. All the fluorescence measurements were made in a Victor 3 Multilabel Counter [Perkin Elmer, USA]. The IC50 was determined by fitting the dose response data to sigmoidal curve fitting equation using GraphPad Prism software V5. To identify compounds that inhibit CDK7 irreversibly, time depended inhibition studies were carried by pre-incubating compound with the enzyme at three time points (20, 60 and 180 min) and carrying out assay as described above.

CDK7/CycH/MNAT1, sequence (P50613 whole entry): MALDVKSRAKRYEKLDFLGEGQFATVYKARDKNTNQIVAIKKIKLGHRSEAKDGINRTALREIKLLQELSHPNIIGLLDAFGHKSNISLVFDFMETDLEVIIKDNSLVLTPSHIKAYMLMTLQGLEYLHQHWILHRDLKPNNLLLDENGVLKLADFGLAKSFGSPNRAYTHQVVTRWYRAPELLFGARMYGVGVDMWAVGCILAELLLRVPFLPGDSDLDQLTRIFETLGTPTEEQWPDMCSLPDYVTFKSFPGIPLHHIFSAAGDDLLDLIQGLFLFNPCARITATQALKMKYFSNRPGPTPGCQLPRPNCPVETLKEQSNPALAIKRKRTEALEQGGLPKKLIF
CDK7/CycH/MNAT1, sequence (P51946 whole entry partner): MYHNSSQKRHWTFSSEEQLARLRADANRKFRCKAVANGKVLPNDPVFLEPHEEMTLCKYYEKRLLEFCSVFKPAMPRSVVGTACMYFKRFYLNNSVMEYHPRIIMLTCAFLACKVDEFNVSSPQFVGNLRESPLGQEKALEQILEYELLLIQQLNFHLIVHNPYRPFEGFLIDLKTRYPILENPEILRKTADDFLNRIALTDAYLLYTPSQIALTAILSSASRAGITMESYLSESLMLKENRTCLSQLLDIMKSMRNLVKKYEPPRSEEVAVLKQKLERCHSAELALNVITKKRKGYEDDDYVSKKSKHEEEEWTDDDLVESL
CDK7/CycH/MNAT1, sequence (P51948 whole entry partner): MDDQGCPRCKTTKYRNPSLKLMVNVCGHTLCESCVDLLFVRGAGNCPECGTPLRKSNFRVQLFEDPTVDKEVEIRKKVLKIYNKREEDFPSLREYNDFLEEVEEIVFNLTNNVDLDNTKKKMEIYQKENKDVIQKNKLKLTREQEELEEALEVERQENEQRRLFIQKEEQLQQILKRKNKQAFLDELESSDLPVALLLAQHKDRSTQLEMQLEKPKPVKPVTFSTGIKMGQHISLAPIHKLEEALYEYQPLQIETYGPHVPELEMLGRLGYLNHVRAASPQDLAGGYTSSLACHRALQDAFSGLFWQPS

One may read the inhibition as the percentage by which the read-out fell short of the control. As usually defined, the IC50 is the midpoint of a concentration-inhibition curve. On to `C=CC(=O)N1CCC1C(=O)Nc1ccc(F)c(CNc2nc(NC3CCOCC3)nc3c(C(C)C)cnn23)c1` (stereo not drawn) [Compound 29, 1-acryloyl-N-(4-fluoro-3-(((8-isopropyl-2-((tetrahydro-2H-pyran-4-yl)amino)pyrazolo[1,5-a][1,3,5]triazin-4-yl)amino)methyl)phenyl)azetidine-2-carboxamide], for which the inhibition at 10 µM was found to be 98% and the IC50 is < 300 nM. The like results for `C=CC(=O)N1CCC1C(=O)Nc1cccc(CNc2nc(NC3CCOCC3)nc3c(C(C)C)cnn23)c1F` (stereo not drawn) [Compound 30, 1-acryloyl-N-(2-fluoro-3-(((8-isopropyl-2-((tetrahydro-2H-pyran-4-yl)amino)pyrazolo[1,5-a][1,3,5]triazin-4-yl)amino)methyl)phenyl)azetidine-2-carboxamide] were, in that order, 98% and < 300 nM. In the same order, the values of `C=CC(=O)N1CCC1C(=O)Nc1cc(F)cc(CNc2nc(NC3CCOCC3)nc3c(C(C)C)cnn23)c1` (stereo not drawn) [Compound 31, 1-acryloyl-N-(3-fluoro-5-(((8-isopropyl-2-((tetrahydro-2H-pyran-4-yl)amino)pyrazolo[1,5-a][1,3,5]triazin-4-yl)amino)methyl)phenyl)azetidine-2-carboxamide] are 100% and < 300 nM. Take `C=CC(=O)N1CCC(C(=O)Nc2cc(F)cc(CNc3nc(NC4CCOCC4)nc4c(C(C)C)cnn34)c2)C1` (stereo not drawn) [Compound 33, 1-acryloyl-N-(3-fluoro-5-(((8-isopropyl-2-((tetrahydro-2H-pyran-4-yl)amino)pyrazolo[1,5-a][1,3,5]triazin-4-yl)amino)methyl)phenyl)pyrrolidine-3-carboxamide]: the inhibition at 10 µM stood at 86% and the IC50 was 300 to 1000 nM.

As to `C=CC(=O)N1CCCCC1C(=O)Nc1ccc(C)c(CNc2nc(NC3CCOCC3)nc3c(C(C)C)cnn23)c1` (stereo not drawn) [Compound 34, 1-acryloyl-N-(3-(((8-isopropyl-2-((tetrahydro-2H-pyran-4-yl)amino)pyrazolo[1,5-a][1,3,5]triazin-4-yl)amino)methyl)-4-methylphenyl)piperidine-2-carboxamide], the inhibition at 10 µM is 73% and the half-inhibitory concentration (IC50) was > 1000 nM.

Consider `C=CC(=O)N1CCCCC1C(=O)Nc1cccc(CNc2nc(NC3CCOCC3)nc3c(C(C)C)cnn23)c1F` (stereo not drawn) [Compound 35, 1-acryloyl-N-(2-fluoro-3-(((8-isopropyl-2-((tetrahydro-2H-pyran-4-yl)amino)pyrazolo[1,5-a][1,3,5]triazin-4-yl)amino)methyl)phenyl)piperidine-2-carboxamide], for which the inhibition at 10 µM stood at 99% and the concentration for half-maximal inhibition (IC50) is < 300 nM. In the same order, the values of `C=CC(=O)N1CCCCC1C(=O)Nc1cc(F)cc(CNc2nc(NC3CCOCC3)nc3c(C(C)C)cnn23)c1` (stereo not drawn) [Compound 36, 1-acryloyl-N-(3-fluoro-5-(((8-isopropyl-2-((tetrahydro-2H-pyran-4-yl)amino)pyrazolo[1,5-a][1,3,5]triazin-4-yl)amino)methyl)phenyl)piperidine-2-carboxamide] are 91% and 300 to 1000 nM. In the same order, the values of `C=CC(=O)N1CCCCC1C(=O)Nc1ccc(F)c(CNc2nc(NC3CCOCC3)nc3c(C(C)C)cnn23)c1` (stereo not drawn) [Compound 37, 1-acryloyl-N-(4-fluoro-3-(((8-isopropyl-2-((tetrahydro-2H-pyran-4-yl)amino)pyrazolo[1,5-a][1,3,5]triazin-4-yl)amino)methyl)phenyl)piperidine-2-carboxamide] are 91% and < 300 nM. In the same order, the values of `C=CC(=O)N[C@H]1CC[C@@H](C(=O)Nc2ccc(F)c(CNc3nc(NC4CCOCC4)nc4c(C(C)C)cnn34)c2)CC1` [Compound 39, (1,4-cis)-4-acrylamido-N-(4-fluoro-3-(((8-isopropyl-2-((tetrahydro-2H-pyran-4-yl)amino)pyrazolo[1,5-a][1,3,5]triazin-4-yl)amino)methyl)phenyl)cyclohexane-1-carboxamide] are 76% and > 1000 nM. With `C=CC(=O)N1CCOCC1C(=O)Nc1cncc(CNc2nc(NC3CCOCC3)nc3c(C(C)C)cnn23)c1` (stereo not drawn) [Compound 40, 4-acryloyl-N-(5-(((8-isopropyl-2-((tetrahydro-2H-pyran-4-yl)amino)pyrazolo[1,5-a][1,3,5]triazin-4-yl)amino)methyl)pyridin-3-yl)morpholine-3-carboxamide], the inhibition at 10 µM is 99% and the IC50 is < 300 nM. As for `C=CC(=O)Nc1cc(C(=O)Nc2cccc(CNc3nc(NC4CCOCC4)nc4c(C(C)C)cnn34)c2)ccc1C` [Compound 40A, 3-acrylamido-N-(3-(((8-isopropyl-2-((tetrahydro-2H-pyran-4-yl)amino)pyrazolo[1,5-a][1,3,5]triazin-4-yl)amino)methyl)phenyl)-4-methylbenzamide], the IC50 was < 300 nM. The same measure, in the same setting: next, `C=CC(=O)Nc1ccc(C)c(C(=O)Nc2cccc(CNc3nc(NC4CCOCC4)nc4c(C(C)C)cnn34)c2)c1` [Compound 40B, 5-acrylamido-N-(3-(((8-isopropyl-2-((tetrahydro-2H-pyran-4-yl)amino)pyrazolo[1,5-a][1,3,5]triazin-4-yl)amino)methyl)phenyl)-2-methylbenzamide]: < 300 nM; `C=CC(=O)N1C(C)CCCC1C(=O)Nc1cccc(CNc2nc(NC3CCOCC3)nc3c(C(C)C)cnn23)c1` (stereo not drawn) [Compound 40C, 1-acryloyl-N-(3-(((8-isopropyl-2-((tetrahydro-2H-pyran-4-yl)amino)pyrazolo[1,5-a][1,3,5]triazin-4-yl)amino)methyl)phenyl)-6-methylpiperidine-2-carboxamide]: < 300 nM; `C=CC(=O)N1CCCCC1C(=O)Nc1cccc(CNc2nc(N[C@H]3CCCOC3)nc3c(C(C)C)cnn23)c1` (stereo partly drawn) [Compound 40D, 1-acryloyl-N-(3-(((8-isopropyl-2-(((S)-tetrahydro-2H-pyran-3-yl)amino)pyrazolo[1,5-a][1,3,5]triazin-4-yl)amino)methyl)phenyl)piperidine-2-carboxamide]: 300 to 1000 nM. For the compound `C=CC(=O)N1CCC[C@H](NC(=O)c2cccc(CNc3nc(NC4CCOCC4)nc4c(C(C)C)cnn34)c2)C1` [Compound 41, (S)—N-(1-acryloylpiperidin-3-yl)-3-(((8-isopropyl-2-((tetrahydro-2H-pyran-4-yl)amino)pyrazolo[1,5-a][1,3,5]triazin-4-yl)amino)methyl)benzamide], the inhibition at 10 µM was 92% and the IC50 lay within 300 to 1000 nM. On to `C=CC(=O)N1CCC(C(=O)Nc2cc(CNc3nc(NC4CCOCC4)nc4c(C(C)C)cnn34)ccc2F)C1` (stereo not drawn) [Compound 43, 1-acryloyl-N-(2-fluoro-5-(((8-isopropyl-2-((tetrahydro-2H-pyran-4-yl)amino)pyrazolo[1,5-a][1,3,5]triazin-4-yl)amino)methyl)phenyl)pyrrolidine-3-carboxamide], for which the inhibition at 10 µM is 79% and the IC50 lay within 300 to 1000 nM. The like results for `C=CC(=O)N1CCCCC1C(=O)Nc1cc(CNc2nc(NC3CCOCC3)nc3c(C(C)C)cnn23)ccc1F` (stereo not drawn) [Compound 44, 1-acryloyl-N-(2-fluoro-5-(((8-isopropyl-2-((tetrahydro-2H-pyran-4-yl)amino)pyrazolo[1,5-a][1,3,5]triazin-4-yl)amino)methyl)phenyl)piperidine-2-carboxamide] were, in that order, 94% and < 300 nM.

For the compound `C=CC(=O)N1CCCC(C(=O)Nc2cccc(C(C)Nc3nc(NC4CCOCC4)nc4c(C(C)C)cnn34)c2)C1` (stereo not drawn) [Compound 45, 1-acryloyl-N-(3-(1-((8-isopropyl-2-((tetrahydro-2H-pyran-4-yl)amino)pyrazolo[1,5-a][1,3,5]triazin-4-yl)amino)ethyl)phenyl)piperidine-3-carboxamide], the inhibition at 10 µM worked out at 73% and the IC50 was > 1000 nM. In the same order, the values of `C=CC(=O)N1CCN(C(=O)Oc2cccc(CNc3nc(NC4CCOCC4)nc4c(C(C)C)cnn34)c2)CC1` [Compound 46, 3-(((8-isopropyl-2-((tetrahydro-2H-pyran-4-yl)amino)pyrazolo[1,5-a][1,3,5]triazin-4-yl)amino)methyl)phenyl 4-acryloylpiperazine-1-carboxylate] are 98% and < 300 nM.

As for `C=CC(=O)Nc1cccc(C(=O)Nc2cccc(CNc3nc(NC4CCOCC4)nc4c(C(C)C)cnn34)c2)c1` [Compound 47, 3-acrylamido-N-(3-(((8-isopropyl-2-((tetrahydro-2H-pyran-4-yl)amino)pyrazolo[1,5-a][1,3,5]triazin-4-yl)amino)methyl)phenyl)benzamide], the inhibition at 10 µM worked out at 100% and the IC50 is < 300 nM. In the same order, the values of `C=CC(=O)Nc1ccccc1C(=O)Nc1cccc(CNc2nc(NC3CCOCC3)nc3c(C(C)C)cnn23)c1` [Compound 48, 2-acrylamido-N-(3-(((8-isopropyl-2-((tetrahydro-2H-pyran-4-yl)amino)pyrazolo[1,5-a][1,3,5]triazin-4-yl)amino)methyl)phenyl)benzamide] are 98% and < 300 nM. Regarding `C=CC(=O)Nc1cccc(C(=O)Nc2cccc(CNc3nc(NC4CCOCC4)nc4c(C(C)C)cnn34)c2)c1C` [Compound 48A, 3-acrylamido-N-(3-(((8-isopropyl-2-((tetrahydro-2H-pyran-4-yl)amino)pyrazolo[1,5-a][1,3,5]triazin-4-yl)amino)methyl)phenyl)-2-methylbenzamide], the IC50 is < 300 nM.

Source of the values: patent US11186576B2, “Pyrazolo[1,5-A][1,3,5]triazine and pyrazolo[1,5-A]pyrimidine derivatives as CDK inhibitors” (Aurigene Discovery Technologies Limited, priority 2015, dated 2021).
